Source: patent US8507460B2, “Substituted 3′,5′-cyclic phosphates of purine nucleotide compounds and pharmaceutical compositions for the treatment of viral infections” (priority 2011, dated 2013)

What was measured:
HCV genotype 1b replicon = assay: HCV Replicon Assay (Zluc luciferase reporter); format: cell-based
Description: Huh-7-derived cell line (Zluc) that harbors an HCV genotype 1b replicon and a luciferase reporter gene was grown in Dulbecco's Modified Eagle Medium (DMEM) supplemented with 10% fetal bovine serum, 2 mM GlutaMAX, 1% MEM nonessential amino acids, 100 IU/mL penicillin, 100 μg/mL streptomycin, and 0.5 mg/mL Geneticin® (G418). For dose response testing the cells were seeded in 96-well plates at 7.5×10^3 cells per well in a volume of […], and incubated at 37° C./5% CO2. Drug solutions were made up freshly in Huh-7 media as 2× stocks. […] 5-fold dilutions were prepared from these stocks in DMEM without G418. At least three hours after Zluc cells were seeded, drug treatment was initiated by adding 50 μL of drug dilutions to the plates in duplicate. Final concentrations of drug ranged from 100 μM to 0.0000512 μM. Cells were then incubated at 37° C./5% CO2. Alternatively, compounds were tested at two concentrations (1 μM and 10 μM). […] After 72 hours of incubation, the inhibition of HCV replication was measured by quantification of photons emitted after mono-oxygenation of 5′-fluoroluciferin to oxyfluoroluciferin by firefly luciferase. For this, media was removed from the plates via gentle tapping. Fifty microliters of ONE-glo luciferase assay reagent was added to each well. The plates were shaken gently for 3 min at room temperature and luminescence was measured on a Victor^3 V 1420 multilabel counter (Perkin Elmer) with a 1 second read time using a 700 nm cut-off filter. The EC50 values were calculated from dose response curves from the resulting best-fit equations determined by Microsoft Excel and XLfit 4.1 software. When screening at two fixed concentrations, the results were expressed as % inhibition at 1 μM and 10 μM.

Zluc cells = assay: Cytotoxicity evaluation, CellTiter-Blue Cell Viability Assay; format: cell-based; details: read-out: HCV Replicon CC50
Description: For cytotoxicity evaluation, Zluc cells were treated with compound as described above, and cell viability was monitored using the CellTiter-Blue Cell Viability Assay (Promega) by adding 20 μL of the assay solution to each well. The plates were then incubated at 37° C./5% CO2 for at least 3 hours.

[1] = Stability in simulated gastric and intestinal fluids; format: in vitro ADME; details: 100 μM, 2 hours at 37° C., percent of peak area at time zero
Description: Simulated gastric and intestinal fluids containing pepsin and pancreatin respectively were prepared according to the U.S. Pharmacopoeia USP291 procedure (www.pharmacopeia.cn/v29240/usp29nf24s0_ris1s126.html). Test compound (final concentration 100 μM) was incubated in duplicate in the appropriate fluid for 2 hours at 37° C. The samples were quenched with 200 μl cold acetonitrile, vortexed for 30 seconds and then centrifuged at 16,100 g for 10 min. The supernatants were analyzed by HPLC on a C-18 column with UV detection at 252 nm. The time 0 samples were prepared by adding SGF or SIF fluid to the quenching solvent followed by the test compound. Stability of the compound was determined by peak area the test compound after incubation and calculated as percent of the peak area observed at time zero.

[2] = Stability in fresh human whole blood; format: in vitro ADME; details: 0.5 μM, percent unchanged
Description: (§1) Stability of test compounds were determined in fresh human whole blood with K2EDTA as the anticoagulant (stored refrigerated at 2-8° C. and used within 7 days of receipt). The experiment was conducted with three replicates for each time point. Whole blood, pre-incubated at 37° C. for 10-15 minutes, was fortified with a solution of test compound for a final concentration of 0.5 μM and mixed for 30 sec. At intervals (0, 0.5, 1 and 2 hr), three […] aliquots were combined with 200 μL (each) of an ice-cold solution of the internal standard (carbutamide 500 ng/mL in acetonitrile). The samples were vortexed for 30 sec and then centrifuged at 16,100 g for 5 min. The supernatant was analyzed by LC-MS/MS. The MS peak area ratio of the test compound versus the internal standard was calculated and percent unchanged test compound was calculated for each time point using this ratio.

Stability in mouse blood = format: in vitro ADME; details: mouse whole blood, on ice, percent unchanged
Description: as §1
The stability in mouse blood was determined on ice at 0, 0.5 and 1 hr as above.

[3] = Stability in rat whole blood; format: in vitro ADME
[4] = Stability in liver and intestinal subcellular fractions (microsomes and S9); format: in vitro ADME, human; details: 10 μM, NADPH, 60 min, percent unchanged
Description: Stability of test compounds were determined in subcellular fractions (microsomes and S9) of human liver and intestine in duplicate for each matrix. Pooled liver and intestinal microsomal, intestinal and liver S9 proteins (1.0 mg/mL), suspended in incubation buffer (100 mM potassium phosphate, pH […], and 0.1 mM EDTA), were preincubated for 5 min at 37° C. with 10 μM of a test compound from a 10 mM stock solution in DMSO (final DMSO concentration was 0.1%); the reaction was initiated by the addition of NADPH (3 mM final concentration). At specific times (0 and 60 min), 0.1 mL samples were taken and the reaction terminated by the addition of 4 volumes of stop solution (acetonitrile with 500 ng/mL carbutamide as an internal standard). The samples were vortexed for 30 sec and then centrifuged at 16,000 g for 10 min. 100 μL of supernatants were transferred to 96 deep-well plates preloaded with 100 μL distilled water and analyzed after mixing by LC-MS/MS. The MS peak area ratio of the test compound versus the internal standard was calculated and percent unchanged test compound over 60 minutes was calculated using this ratio.

fresh human hepatocytes = assay: Release of active metabolite in fresh human hepatocytes; format: in vitro ADME; details: 10 μM
Description: Plates of fresh human and mouse hepatocytes were obtained on ice. The medium was removed and replaced with hepatocyte culture medium (William's E supplemented with penicillin-streptomycin, 1% L-glutamine, 1% insulin-transferrin-selenium and 0.1 μM Dexamethasone (Invitrogen) or with Invitro GRO HI medium complemented with Torpedo antibiotics (Celsis)). Cells were left overnight in an incubator at 37° C. to acclimatize to culture and the medium.
Hepatocyte incubations were conducted at a final volume of 0.5 mL hepatocyte culture medium/well (0.8 million cells/well for human and 0.5 million cells/well for mouse; 12 well plate no overlay, collagen coat). Culture medium from overnight incubation of cells was removed and replaced with fresh medium, pre-warmed to 37° C., containing 10 μM of test compound from a stock solution in DMSO (final DMSO concentration was 0.1%). At each specific time point, incubation medium was removed and cell monolayers were carefully washed two times with ice-cold PBS. Following the last wash, all PBS was carefully removed and 1.0 mL of extraction solution (ice-cold 70% methanol/30% water) added. Cells were scraped off and suspended in the extraction solution, transferred to 2 mL polypropylene microfuge tubes and intracellular contents extracted overnight at −20° C.
After the overnight treatment the cellular extracts were prepared by centrifugation at 16,000×g for 10 min to remove cellular debris. The remaining sample was then dried using a refrigerated centrivap concentrator. Dry extracts were reconstituted in 1000 μL of HPLC-grade water and centrifuged at 16,000×g for 10 min. Aliquots (100 μL each) of the supernatant were transferred into a 96 well plate and internal standard (4 ng/mL final concentration) was added as the internal standard (IS) for LC-MS/MS analysis.
The incubation time points were 6, 24 and 48 hours for human hepatocytes and 1, 4, 8, 12 and 24 hours for mouse hepatocytes.

CCOc1nc(N)nc2c1ncn2[C@@H]1O[C@@H]2COP(=O)(OC(C)C)O[C@H]2[C@@]1(C)O (single isomer, unassigned) [Compound 1b]
selectivity index (HCV genotype 1b replicon; HCV replicon assay, Zluc cells): greater than 80 | EC50 (HCV genotype 1b replicon; Zluc cells (Huh-7-derived, HCV genotype 1b replicon, luciferase reporter), 72 hours): 1 to 10 µM | CC50 (Zluc cells): > 50 µM | Stability SGF ([1]; simulated gastric fluid with pepsin): 99% | Stability SIF ([1]; simulated intestinal fluid with pancreatin): 101% | Stability WB_Human (37° C.; 2 hr) [2]: 103% | Stability WB_Mouse (ice; 1 hr) (Stability in mouse blood): 96% | Stability WB_Rat (ice; 1 hr) [3]: 96% | Stability HIS9 (1 hr) ([4]; HIS9 1.0 mg/mL): 104% | Stability HIM (1 hr) ([4]; human intestinal microsome 1.0 mg/mL): 102% | Stability HLS9 (1 hr) ([4]; human liver S9 fraction 1.0 mg/mL): 112% | Stability HLM (1 hr) ([4]; human liver microsome 1.0 mg/mL): 96% | FHH TP (6 hr) (fresh human hepatocytes; 6 hr): BLD^a | FHH TP (24 hr) (fresh human hepatocytes; 24 hr): BLD^a
